Legend:
[1] = test system: Mut^−/−; Tg^INS-MCK-Mut mice; details: mouse, in vivo; for Mut^+/− Oxidation Rate / Mut^−/− Oxidation Rate: ip
Procedure: To further assess transgene function, the in vivo oxidative capacity of Mut^−/−; Tg^INS-MCK-Mut mice was measured through detecting metabolism of numerous 1-^13C labeled fatty acids to ^13CO2 via the Kreb's Cycle.
The in vivo effects of hepatic Mut deficiency were also assessed by measuring the oxidation of 1-^13C-methionine (FIG. 1I) and 1-^13C-glycine (FIG. 1J). These labels reflect hepatic mitochondrial function and the activity of the glycine cleavage system, both known to be impaired in MMA patients.
In Vivo Stable Isotope Oxidation Studies: Stable isotope studies were performed in 4 Mut−/−; Tg^INS-MCK-Mut and 4 control littermates. Closed circuit, constant volume respiratory chambers were used to collect and measure enrichment of ^13CO2 in mice, as described previously (Chandler and Venditti, 2009 and 2010, Manoli et al 2013). Mice received IP injections with tracer amounts (10 μl/g of [10 mg/ml] tracer solution) of 99.9% ^13C-isotopomers. Aliquots of air were removed every 5-10 min, while CO2 was continuously monitored. ^13CO2 enrichment was measured by isotope ratio mass spectroscopy (Metabolic Solutions, Nashua, N.H.). […] Cumulative percentage of total isotopomer dose metabolized was subsequently calculated, using the formula: Percentage of dose metabolized=total ^13C excreted [mmol/dose (mmol)×100%].
The following 1-C labeled stable isotopes were used: ^13C Sodium Propionate, ^13C-Methionine, ^13C-Glycine, ^13C-Pyruvate, ^13C-Octanoate, ^13C-α-Ketoisocaproic Acid, ^13C-Leucine, ^13C-Acetate, ^13C-Phenylalanine. Stable isotopomers were purchased from Cambridge Isotope Laboratories. Variables were compared for each substrate and time point using a two-sided unpaired t-test and considered statistically significant at p<0.05.
These studies were conducted using N=5 mice with MMA (Mut^−/−; Tg^INS-MCK-Mut mutants) and N=5 sex matched littermates (controls). Each mouse was injected with the labels depicted in Table 3 and the oxidation rates and kinetics of ^13C/^12C CO2 enrichment were analyzed.

[2] = Test drink solution stability; assay type: physicochemical; details: 1 mg/ml in tap water
[3] = test system: methylmalonic acidemia patients and healthy volunteers; details: human, in vivo
Text: Percent Dose Oxidized at each time point=CO2 production rate×Σ(APE (t)/(mmol C^13 administered)×100, where CO2 production rate was the one measured by the indirect calorimetry on the same day just prior to the isotope study.
The test cohort was comprised of 41 patients with MMA (26 mut0, aged 3-37 years, 6 mut-, aged 9-30 years, and 9 cblA, aged 4-41 years), 8 healthy volunteers, and 8 heterozygote parents of affected individuals. Within the affected group, 12 individuals had previously received a liver (LT), kidney (KT), combined liver-kidney (LKT), or partial (graft) liver-kidney (pLKT) transplant (2 LT, 3 KT, 6 LKT, 1 pLKT).
A metabolic cart (ParvoMedics TrueOne2400 Sandy, Utah) was used to measure subject O2 consumption (VO2), CO2 production (VCO2), and resting energy expenditure (REE) at supine posture for 25-35 minutes. Seven of the healthy volunteers were tested three times over a two-month period to evaluate inter- and intra-individual variability.
A dose of 0.5 mg/kg (or 0.5 ml/kg) body weight (BW) was administered to the study subjects orally or through a G-tube as a bolus over no more than 2 minutes, followed by similar amount of water consumption. […] Measurements of the isotopic ratio (^13C/^12C) in expired gas were determined by isotope ratio mass spectrometry (Metabolic Solutions, Nashua, N.H.).

In the case of `C[13C](=O)[O-].[Na+]` [1-^13C-acetate, Sodium 1-^13C-Acetate], the “Cumulative % of total dose metabolized, Controls, mean (SD)” value (from here on “Cumulative % … Controls, mean (SD)”) [1] was 38.02 (11.79) %, the “Cumulative % of total dose metabolized, Mutants, mean (SD)” value (“Cumulative % … Mutants, mean (SD)” for short) [1] was 42.23 (14.32) % and the “Mut^+/− Oxidation Rate” value [1] was 69.5 +/− 17.7 (n = 5) μmol/g/hour. For the same compound, the “Mut^−/− Oxidation Rate” value [1] was 88.2 +/− 26.5 (n = 5) μmol/g/hour.

For `NC[13C](=O)O` [1-^13C-glycine], the “oxidation of label (release of label)” value [1] was “impaired ability to release label”, the “Mut^+/− Oxidation Rate” value [1] was 0.14 +/− 0.003 (n = 3) μmol/g/hour and the “Mut^−/− Oxidation Rate” value [1] was 0.07 +/− 0.007 (n = 4) μmol/g/hour.

With `CSCC[C@H](N)[13C](=O)O` [1-^13C-methionine] the “oxidation of label (release of label)” value [1] was “impaired ability to release label”, the “Mut^+/− Oxidation Rate” value [1] was 11.5 +/− 3.4 (n = 4) μmol/g/hour and the “Mut^−/− Oxidation Rate” value [1] was 6.5 +/− 2.5 (n = 4) μmol/g/hour.

In the case of `CCC(=O)O` [1-^13C-propionate, sodium 1-^13C-propionate], the “maximal time for maintaining solution stability” value [2] was “two” and the “time within which the majority of the label is oxidized” value [3] was 15 to 30 min.

In the case of `CC(C)[13C@H](N)C(=O)O` [2-^13C-Valine], the “Cumulative % … Controls, mean (SD)” value [1] was 4.41 (2.63) % and the “Cumulative % … Mutants, mean (SD)” value [1] was 5.15 (2.19) %.

With `CC(C)C[C@H](N)[13C](=O)O` [L-1-^13C-Leucine] the “Cumulative % … Controls, mean (SD)” value [1] was 13.54 (1.50) % and the “Cumulative % … Mutants, mean (SD)” value [1] was 12.44 (3.10) %.

With `N[C@@H](C[13c]1ccccc1)C(=O)O` [L-1-^13C-Phenylalanine] the “Cumulative % … Controls, mean (SD)” value [1] was 10.75 (7.38) % and the “Cumulative % … Mutants, mean (SD)” value [1] was 5.71 (2.74) %.

For `CC(C)C[13C@H](N)C(=O)O` [L-2-^13C-Leucine], the “Cumulative % … Controls, mean (SD)” value [1] was 3.68 (2.34) % and the “Cumulative % … Mutants, mean (SD)” value [1] was 3.32 (0.85) %.

For `C[13C](=O)C(=O)O` [Sodium 1-^13C-Pyruvate], the “Cumulative % … Controls, mean (SD)” value [1] was 52.16 (17.06) % and the “Cumulative % … Mutants, mean (SD)” value [1] was 52.99 (9.85) %.

For `CC(C)CC(=O)[13C](=O)[O-].[Na+]` [Sodium 1-^13C-α-Ketoisocaproic Acid], the “Cumulative % … Controls, mean (SD)” value [1] was 33.95 (3.66) % and the “Cumulative % … Mutants, mean (SD)” value [1] was 24.00 (12.95) %.
